What was measured:
[1] = system: MDM4 alternative splicing in Z-138 cells; experiment: MDM4 splicing RT-PCR; assay type: cell-based, human; settings: 3-day exposure, 1.6 nM to 1 μM tested
Procedure: We confirmed PRMT5 inhibitor-induced alternative splicing of MDM4 from the full-length isoform (MDM4-FL) to the short isoform (MDM4-S) at both treatment concentrations, with the most robust changes after 3 days of compound exposure.
RNA was isolated from cell pellets as described above and was converted to cDNA using ABI High Capacity Reverse Transcription Reagents (4274966) per manufacturer’s instructions and PCR was performed as described elsewhere. Reaction products were separated using agarose ethidium bromide gel electrophoresis and visualized using a Bio-Rad VersaDoc Model 5000 imaging system.

[2] = system: p53 wild-type Z-138 xenograft model; experiment: Z-138 xenograft efficacy; assay type: in vivo, mouse; settings: 21 days
[3] = target: panel containing 20 methyltransferases including PRMT9; experiment: methyltransferase selectivity panel; assay type: biochemical; settings: other methyltransferases including PRMT9, substrates near KM^app
Procedure: (A) Plots indicating the mode of inhibition against
IC50 values are graphed as a function of substrate concentration relative to Kmapp
(top panel, SAM; bottom panel, H4 1-21 peptide). Data points (closed vs. open
circles) represent two independent experiments. (B) IC50 values plotted as a
represent data generated using 0.8 nM PRMT5/MEP50 while closed circles
represent data with 4 nM PRMT5/MEP50 (top panel).
following a 60 minute Enz:SAM:Inh preincubation fit to a 3-parameter dose-
Enz:SAM:Inh preincubation. IC50 values were determined by fitting inhibition
data to a 3-parameter dose-response equation. Ki*app values were calculated
from IC50 values using the Cheng-Prusoff equation for a competitive inhibitor.

Compound | concentration at which MDM4 alternative splicing was evident [1] [nM] | tumour growth inhibition (TGI) ([2]; 25 mg/kg BID oral) [%] | tumour growth inhibition (TGI) ([2]; 50 mg/kg BID oral) [%] | tumour growth inhibition (TGI) ([2]; 100 mg/kg BID oral) [%] | IC50 [3] [µM]
O=C(NC[C@H](O)CN1CCc2ccccc2C1)c1ccnc(NC2CCC2)c1 [GSK3203591] | ≥ 8 |  |  |  | 
CC(=O)N1CCC(Nc2cc(C(=O)NC[C@H](O)CN3CCc4ccccc4C3)ncn2)CC1 [GSK3326595] |  | 52.1 | 88.03 | 106.05 | > 40
